Experiments:
[1] = Pharmacokinetic studies, second set (LC-MS, brain); type: in vivo; settings: pyrido pretreated mice
Protocol: Another group of mice were injected with free tenofovir. The total dose of tenofovir that was injected to the mice that received encapsulated tenofovir was […], out of which 7.5 mg/kg was encapsulated tenofovir. The total dose of tenofovir that was injected to the mice that received free tenofovir was 75 mg/kg. All animals were pretreated with 0.5 mg/kg pyrido. Results are mean of 5 mice±SD.
In the second set of the PK studies, all the mice were pretreated with pyrido 15 min prior to the injection of 7.5 mg/kg tenofovir encapsulated in optimal vesicles or with 75 mg/kg free tenofovir with no vesicles.

[2] = Pharmacokinetic studies, first set (LC-MS, blood and brain); settings: for half-life: mouse, iv, 34 mg/kg
[3] = Tenofovir concentration in brain after i.v. tenofovir-loaded vesicles (HPLC-UV of brain homogenate); type: in vivo, mice
Source text: Protein precipitation was accomplished by adding trichloroacetic acid (TCA) at a final concentration of 3.75%, providing a clear supernatant by centrifugation. This supernatant was neutralized by 1% sodium hydroxide solution and the neutralized extract was examined by HPLC with a UV detector, using an isocratic method with 10% aceto-nitrile and 90% buffer of triethyl amine in water adjusted to pH 5.4 with concentrated phosphoric acid. When applied to a solution of tenofovir in buffer without the brain extract, the retention time was 17.3 min (FIG. 8 Panel A). […] The broad peak at 22.5 min overlapped the peak of the tenofovir at 17 min (compare FIG. 8 Panel B to FIG. 8 Panel A) and would interfere with the determination of tenofovir concentration in the extract. To narrow the peak of the endogenous compound with the Rt of 22.5 min, a solid phase extraction (SPE) method was employed, using BOND ELUT-C18 column. After the treatment with SPE some peaks disappeared and the others became narrower.
Different concentrations of tenofovir were then spiked into a supernatant obtained after deproteinization of brain homogenate with TCA and centrifugation. The supernatant with the tenofovir was loaded into the SPE cartridge, which was conditioned by 3 ml methanol and 3 ml of 150 mM ammonium acetate (pH=5.0). After washing with 900 μl of 100 mM ammonium acetate (pH=7.0), in order to obtain less interference at the retention time of each component, the column was eluted by 500 μl of methanol to collect the tenofovir. The solvent was removed under nitrogen at 60° C. The extracted sample was dissolved into 120 μl of water and methanol solution (90:10, v/v) and injected into the HPLC.
In view of the conditions for the determination of tenofovir in brain homogenates established herein, mice were injected with 7.5 mg/kg of tenofovir encapsulated in vesicles prepared as for Table 5 above that contained the optimal GLH-55b and SA and brain homogenates were prepared from the brains of these mice for the determination of tenofovir concentrations. […] This concentration value is significant and should have a therapeutic affect against HIV.
A subsequent in vivo experiment was carried out as above but with testing over different periods of time from of 15 min, 30 min, 60 min and 120 min after IV injection the amount of tenofovir was in micro gr/grm brain 6.2, 2.2, 1.0 and 0.5 respectively. While the free tenofovir injected had levels of 0 less than 0.2 micrograms/gr brain. Thus indicating the efficacy of the vesicles to delivery tenofovir to the brain.

[4] = human subjects treated orally with 300 mg tenofovir; cited from earlier work

In the case of C[C@H](Cn1cnc2c(N)ncnc21)OCP(=O)(O)O [tenofovir, ({[(2R)-1-(6-amino-9H-purin-9-yl)propan-2-yl]oxy}methyl)phosphonic acid], the “concentration of tenofovir in the brain” value ([1]; 7.5 mg/kg tenofovir encapsulated in optimized V-Smart vesicles, all time points up to 2 hours, vs estimated therapeutic threshold) is reported as greater than 100 ng/mL, the “concentrations of tenofovir in the brain” value ([1]; free drug 75 mg/kg, no vesicles, detection limit 40 ng/ml) is reported as “below the measurable level” and the concentration at 60 min ([1]; mouse, brain, intravenous, 7.5 mg/kg encapsulated in optimized V-Smart vesicles, 60 min after the injection, read-out: concentration of tenofovir in the brain) is reported as roughly 1000 ng/mL. The concentration at 15 min ([1]; mouse, brain, intravenous, 7.5 mg/kg encapsulated in optimized V-Smart vesicles, after 15 min, read-out: concentration of tenofovir in the brain) was greater than 6000 ng/g, the “tenofovir concentration in the brain” value ([2]; mice injected with empty vesicles and then free tenofovir) was “not detected” and the half-life ([2]; brain, apparent half-life of tenofovir in the brain, mice pretreated with pyrido, tenofovir encapsulated in GLH-19 + GLH-20 vesicles, i.v.) was roughly 40 min. The half-life ([2]; serum, actual half-life of the encapsulated tenofovir in the blood, inferred, encapsulated tenofovir only 20% of injected) was greater than 20 min, the half-life ([2]; serum, half-life of tenofovir in the blood (apparent), mice i.v., total tenofovir 34 mg/kg of which 6.8 mg/kg encapsulated, reflects free and encapsulated tenofovir) was roughly 20 min and the “persistence of tenofovir in the brain” value ([2]; tenofovir encapsulated in GLH-19 vesicles, i.v. mice) was “did not persist long in the brain”. The “concentration of tenofovir in the brain” value ([3]; mice i.v., 7.5 mg/kg tenofovir encapsulated in vesicles with GLH-55b and SA, estimated from calibration curve) was 22.7 μg/gr brain, the “level of tenofovir in brain” value ([3]; mice, free tenofovir injected IV) was “less than 0.2 micrograms/gr brain” and the concentration at 15 min ([3]; mouse, brain, 7.5 mg/kg, mice, encapsulated tenofovir in vesicles, 15 min after IV injection, read-out: amount of tenofovir in brain) was 6200 ng/g. The concentration at 30 min ([3]; mouse, brain, 7.5 mg/kg, mice, encapsulated tenofovir in vesicles, 30 min after IV injection, read-out: amount of tenofovir in brain) was 2200 ng/g, the concentration at 60 min ([3]; mouse, brain, 7.5 mg/kg, mice, encapsulated tenofovir in vesicles, 60 min after IV injection, read-out: amount of tenofovir in brain) was 1000 ng/g and the concentration at 120 min ([3]; mouse, brain, 7.5 mg/kg, mice, encapsulated tenofovir in vesicles, 120 min after IV injection, read-out: amount of tenofovir in brain) was 500 ng/g. The “blood concentration of tenofovir” value [4] was “about 500 ng/ml”.
